Assay results from patent US20070249690A1, “N-[2-(4-Pyridinyl)Ethyl]Benzamide Derivatives as Fungicides” (priority 2004, published 2007).

Tests used:
Botrytis cinerea = assay: In vivo test on Botrytis cinerea (cucumber grey mould), cucumber plants; settings: 330 ppm; for effectiveness on Botrytis cinerea: comparison compounds of WO 01/11965
Experimental: The active ingredient tested is prepared by potter homogenisation in a concentrated suspension type formulation at 100 g/l. This suspension is then diluted with water to obtain the desired active material concentration.
Cucumber plants (Marketer variety) in starter cups, sown on a 50/50 peat soil-pozzolana substrate and grown at 18-20° C., are treated at the cotyledon Z11 stage by spraying with the aqueous suspension described above. Plants, used as controls, are treated with an aqueous solution not containing the active material.
After 24 hours, the plants are contaminated by depositing drops of an aqueous suspension of Botrytis cinerea spores (150,000 spores per ml) on upper surface of the leaves. The spores are collected from a 15-day-old culture and are suspended in a nutrient solution composed of: • 20 g/L of gelatin • 50 g/L of cane sugar • 2 g/L of NH4NO3 • 1 g/L of KH2PO4
The contaminated cucumber plants are settled for 5/7 days in a climatic room at 15-11° C. (day/night) and at 80% relative humidity.
Grading is carried out 5/7 days after the contamination, in comparison with the control plants. Under these conditions, good (at least 50%) or total protection is observed at a dose of 330 ppm with the following compounds: 3.

Alternaria brassicae = assay: In vivo test on Alternaria brassicae (leaf spot of crucifers), radish plants; settings: 330 ppm, comparison compounds of WO 01/11965
Experimental: The active ingredient tested is prepared by potter homogenisation in a concentrated suspension type formulation at 100 g/l. […] Radish plants (Pernot variety) in starter cups, sown on a 50/50 peat soil-pozzolana substrate and grown at 18-20° C., are treated at the cotyledon stage by spraying with the aqueous suspension described above. Plants, used as controls, are treated with an aqueous solution not containing the active material. After 24 hours, the plants are contaminated by spraying them with an aqueous suspension of Alternaria brassicae spores (40,000 spores per cm^3). The spores are collected from a 12 to 13 days-old culture. The contaminated radish plants are incubated for 6-7 days at about 18° C., under a humid atmosphere. Grading is carried out 6 to 7 days after the contamination, in comparison with the control plants. Under these conditions, good (at least 50%) or total protection is observed at a dose of 330 ppm with the following compounds: 1, 2, 3 and 4.

Peronospora parasitica = assay: Efficacy against Peronospora parasitica; type: in vivo; settings: 330 ppm, comparison compound of WO 01/11965

Structure (SMILES)	effectiveness on Botrytis cinerea (Botrytis cinerea)	protection (good, at least 50%, or total) (Botrytis cinerea; preventive spray on cucumber plants, grading 5/7 days after contamination, versus control plants)	effectiveness on Alternaria brassicae (Alternaria brassicae)	efficacy against Peronospora parasitica (Peronospora parasitica)
CCNC(=O)C(Cc1ncc(C(F)(F)F)cc1Cl)NC(=O)c1ccccc1Br (stereo not shown) [compound 310, N-{1-ethylcarbamoyl-2-[3-chloro-5-(trifluoromethyl)-2-pyridinyl]ethyl}-2-bromobenzamide]	zero effectiveness	–	–	–
O=C(NCCc1cc(F)ncc1F)c1ccccc1C(F)(F)F [Compound 3]	–	at least 50%	–	–
CNC(=O)C(Cc1ncc(C(F)(F)F)cc1Cl)NC(=O)c1ccc(-c2ccccc2)cc1 (stereo not shown) [compound 316, N-{1-methylcarbamoyl-2-[3-chloro-5-(trifluoromethyl)-2-pyridinyl]-ethyl}-4-phenylbenzamide]	zero effectiveness	–	poor effectiveness	–
O=C(Cc1cccs1)NCc1ncc(C(F)(F)F)cc1Cl [compound 101, N-{[3-chloro-5-(trifluoromethyl)-2-pyridinyl]methyl}-5-thienylacetamide]	no efficacy	–	poor efficacy	no efficacy
CNC(=O)C(Cc1ncc(C(F)(F)F)cc1Cl)NC(=O)c1ccccc1 (stereo not shown) [compound 314, N-{1-methylcarbamoyl-2-[3-chloro-5-(trifluoromethyl)-2-pyridinyl]ethyl}-benzamide]	zero effectiveness	–	–	–
CCNC(=O)C(Cc1ncc(C(F)(F)F)cc1Cl)NC(=O)c1cccc([N+](=O)[O-])c1 (stereo not shown) [compound 307, N-{1-ethylcarbamoyl-2-[3-chloro-5-(trifluoromethyl)-2-pyridinyl]ethyl}-3-nitrobenzamide]	zero effectiveness	–	poor effectiveness	–
CCNC(=O)C(Cc1ncc(C(F)(F)F)cc1Cl)NC(=O)c1ccccc1 (stereo not shown) [compound 304, N-{1-ethylcarbamoyl-2-[3-chloro-5-(trifluoromethyl)-2-pyridinyl]-ethyl}-benzamide]	zero effectiveness	–	–	–
CNC(=O)C(Cc1ncc(C(F)(F)F)cc1Cl)NC(=O)c1ccc(OC)cc1 (stereo not shown) [compound 315, N-{1-methylcarbamoyl-2-[3-chloro-5-(trifluoromethyl)-2-pyridinyl]ethyl}-4-methoxybenzamide]	zero effectiveness	–	–	–
CCNC(=O)C(Cc1ncc(C(F)(F)F)cc1Cl)NC(=O)c1ccc(Cl)cc1 (stereo not shown) [compound 306, N-{1-ethylcarbamoyl-2-[3-chloro-5-(trifluoromethyl)-2-pyridinyl]ethyl}-4-chlorobenzamide]	zero effectiveness	–	–	–
